Measurements: the NIST ThermoML archive (doi:10.1016/j.jct.2018.08.012)
± gives the expanded uncertainty stated by the source.

Conditions: for mass density: 298 K, 101.33 kPa, X-ray diffraction; for Triple point temperature: DSC

SMILES | mass density (Crystal) [kg/m3] | mass density (Crystal 3) [kg/m3] | Normal melting temperature (Crystal 1, DTA) [°C] | Triple point temperature (Crystal 2) [K] | Triple point temperature (Crystal 3) [K]
[Ag+].[Ag+].[Ag+].[Ag+].[I-].[I-].[I-].[I-].[I-].[Rb+] [rubidium silver iodide (Ag4RbI5)] | 5389 ± 2 |  |  |  | 
[Ag+].[Ag+].[Te-2] [silver(I) telluride] |  | 8321 ± 2 | 962 ± 4 | 1075 ± 4 | 418 ± 4
